Values belong to the molecule of their own block, whether it stands above or below them.
How the values were obtained:
TTK = TTK (Homo sapiens (Human), UniProt P33981); test: TTK enzyme assay (LanthaScreen Eu Kinase Binding); settings: arithmetic mean of two or more experiments; for IC50: read-out: TTK enz pIC50 (converted)
Procedure: The inhibitory activity of compounds against TTK was determined in a LanthaScreen® Eu Kinase Binding assay run by ThermoFisher Scientific as part of their SelectScreen® Biochemical Kinase Profiling Service. The LanthaScreen® Eu Kinase Binding assay format uses binding of an Alexa Fluor® conjugate or “tracer” to a kinase, which is detected by addition of a Eu-labeled anti-tag antibody. […] The degree of FRET measured in the assay is used to determine the binding of a compound.
(§1) 10 point three-fold dilution compound concentration-response curves, with a top concentration of 10 μM were generated from 10 mM stocks of compound solubilised in DMSO. All assays were performed in white, low volume Greiner 384-well plates (cat. #784207, Greiner), in a total reaction volume of 16 μL and 1% (v/v) final DMSO concentration. […] Plates were then read using a fluorescence plate reader. IC50 values were calculated using XLfit software (IDBS Ltd, Surrey, UK), with the curve fit to model number 205 (sigmoidal dose-response model).

JAK3 = JAK3 (Homo sapiens (Human), UniProt P52333); test: JAK3 enzyme assay (Z'-LYTE); format: biochemical; settings: 10 μM ATP, arithmetic mean of two or more experiments; for IC50: read-out: JAK3 enz pIC50 (converted)
Procedure: (§2) The inhibitory activity of compounds against AURKA, AURKB, JAK1, JAK2 and JAK3 was determined in Z′-LYTE® assays run by ThermoFisher Scientific as part of their SelectScreen® Biochemical Kinase Profiling Service. The Z′-LYTE® biochemical assay format employs a fluorescence-based, coupled-enzyme format and is based on the differential sensitivity of phosphorylated and non-phosphorylated peptides to proteolytic cleavage. The peptide substrate is labeled with two fluorophores—one at each end—that make up a FRET pair. In the primary reaction, the kinase transfers the gamma-phosphate of ATP to a single tyrosine, serine or threonine residue in a synthetic FRET-peptide. In the secondary reaction, a site-specific protease recognises and cleaves non-phosphorylated FRET-peptides. Phosphorylation of FRET-peptides suppresses cleavage by the Development Reagent. Cleavage disrupts FRET between the donor (i.e., coumarin) and acceptor (i.e., fluorescein) fluorophores on the FRET-peptide, whereas uncleaved, phosphorylated FRET-peptides maintain FRET. A ratiometric method, which calculates the ratio (the Emission Ratio) of donor emission to acceptor emission after excitation of the donor fluorophore at 400 nm, is used to quantitate reaction progress. Both cleaved and uncleaved FRET-peptides contribute to the fluorescence signals and therefore to the Emission Ratio. The extent of phosphorylation of the FRET-peptide can be calculated from the Emission Ratio.
as §1, with “black, non-binding,” for “white,”, “Corning” for “Greiner”, “#4514, Corning),” for “#784207, Greiner),”, “10” for “16”, “The kinase reaction was” for “Plates were”, “quenched by the addition of 5 μL of Development Reagent (ThermoFisher Scientific proprietary). […]” for “read using a fluorescence plate reader.”
JAK3: The 2×JAK3/Tyr 06 (ThermoFisher Scientific proprietary) mixture was prepared in 50 mM HEPES pH 7.5. 0.01% BRIJ-35, 10 mM MgCl2, 1 mM EGTA. […] After the 1 hour Kinase Reaction incubation, 5 μL of a 1:128 dilution of Development Reagent was added.

AURKA (Aurora A) = AURKA (Aurora A) (Homo sapiens (Human), UniProt O14965); test: Aurora-A enzyme assay (Z'-LYTE); format: biochemical; settings: 10 μM ATP, arithmetic mean of two or more experiments; for IC50: read-out: AurA enz pIC50 (converted)
Procedure: as §2
as §1, with “black, non-binding,” for “white,”, “Corning” for “Greiner”, “#4514, Corning),” for “#784207, Greiner),”, “10” for “16”, “The kinase reaction was” for “Plates were”, “quenched by the addition of 5 μL of Development Reagent (ThermoFisher Scientific proprietary). […]” for “read using a fluorescence plate reader.”
Aurora A (AurA): The 2×AURKA (Aurora A)/Ser/Thr 01 (ThermoFisher Scientific proprietary) mixture was prepared in 50 mM HEPES pH 7.5, 0.01% BRIJ-35, 10 mM MgCl2, 1 mM EGTA. […] After the 1 hour Kinase Reaction incubation, 5 μL of a 1:4096 dilution of Development Reagent was added.

Chain of JAK3 (P52333 whole entry): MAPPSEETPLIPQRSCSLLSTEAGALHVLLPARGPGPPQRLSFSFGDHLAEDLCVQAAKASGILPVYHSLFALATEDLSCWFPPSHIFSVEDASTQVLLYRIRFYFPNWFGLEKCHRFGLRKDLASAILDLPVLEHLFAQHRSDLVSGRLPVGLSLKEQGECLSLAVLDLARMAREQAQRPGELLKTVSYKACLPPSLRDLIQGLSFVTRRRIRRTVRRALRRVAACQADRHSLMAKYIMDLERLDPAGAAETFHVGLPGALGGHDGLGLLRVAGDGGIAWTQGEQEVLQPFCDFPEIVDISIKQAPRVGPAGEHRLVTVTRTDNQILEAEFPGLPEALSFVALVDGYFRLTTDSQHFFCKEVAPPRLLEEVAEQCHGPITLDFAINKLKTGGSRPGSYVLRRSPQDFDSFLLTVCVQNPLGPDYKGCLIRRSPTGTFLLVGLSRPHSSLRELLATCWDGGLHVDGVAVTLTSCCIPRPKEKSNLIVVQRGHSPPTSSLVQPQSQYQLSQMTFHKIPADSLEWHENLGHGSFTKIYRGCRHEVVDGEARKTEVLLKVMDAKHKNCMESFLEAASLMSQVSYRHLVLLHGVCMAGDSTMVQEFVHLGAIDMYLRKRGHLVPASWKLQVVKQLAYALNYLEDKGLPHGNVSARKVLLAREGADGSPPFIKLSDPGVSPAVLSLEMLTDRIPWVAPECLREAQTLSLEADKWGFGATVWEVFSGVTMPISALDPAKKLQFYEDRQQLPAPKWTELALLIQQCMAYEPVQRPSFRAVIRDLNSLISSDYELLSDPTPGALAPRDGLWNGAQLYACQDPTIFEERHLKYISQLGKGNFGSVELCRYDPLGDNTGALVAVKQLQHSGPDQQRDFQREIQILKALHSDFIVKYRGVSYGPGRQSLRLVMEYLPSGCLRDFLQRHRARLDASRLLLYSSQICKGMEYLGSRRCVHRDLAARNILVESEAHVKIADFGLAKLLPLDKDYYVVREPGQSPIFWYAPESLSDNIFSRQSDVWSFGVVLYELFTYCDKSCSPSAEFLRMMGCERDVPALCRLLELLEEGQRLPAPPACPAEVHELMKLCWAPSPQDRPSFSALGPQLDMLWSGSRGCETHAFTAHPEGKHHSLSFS
Chain of TTK (P33981 whole entry): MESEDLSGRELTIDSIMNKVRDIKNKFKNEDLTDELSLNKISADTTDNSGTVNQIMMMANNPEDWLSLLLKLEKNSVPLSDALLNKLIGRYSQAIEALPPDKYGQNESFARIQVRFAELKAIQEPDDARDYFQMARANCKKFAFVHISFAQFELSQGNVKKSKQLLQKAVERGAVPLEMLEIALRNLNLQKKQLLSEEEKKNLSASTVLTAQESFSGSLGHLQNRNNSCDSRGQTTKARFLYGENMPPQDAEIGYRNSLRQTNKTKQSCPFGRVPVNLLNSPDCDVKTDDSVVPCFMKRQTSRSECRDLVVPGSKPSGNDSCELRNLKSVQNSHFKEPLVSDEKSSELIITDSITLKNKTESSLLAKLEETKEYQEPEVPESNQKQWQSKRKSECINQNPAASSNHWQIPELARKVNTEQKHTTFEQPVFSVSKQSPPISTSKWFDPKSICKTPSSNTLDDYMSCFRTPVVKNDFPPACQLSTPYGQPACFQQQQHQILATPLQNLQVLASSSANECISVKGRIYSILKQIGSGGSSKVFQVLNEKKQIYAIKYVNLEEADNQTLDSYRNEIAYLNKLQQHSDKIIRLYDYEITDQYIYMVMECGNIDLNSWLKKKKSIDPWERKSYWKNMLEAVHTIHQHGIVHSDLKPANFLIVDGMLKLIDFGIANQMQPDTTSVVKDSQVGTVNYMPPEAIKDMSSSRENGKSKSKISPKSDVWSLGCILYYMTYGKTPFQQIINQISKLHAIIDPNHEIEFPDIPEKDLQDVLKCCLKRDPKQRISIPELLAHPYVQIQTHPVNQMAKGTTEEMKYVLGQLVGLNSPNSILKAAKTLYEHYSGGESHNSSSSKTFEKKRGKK
Chain of AURKA (Aurora A) (O14965 whole entry): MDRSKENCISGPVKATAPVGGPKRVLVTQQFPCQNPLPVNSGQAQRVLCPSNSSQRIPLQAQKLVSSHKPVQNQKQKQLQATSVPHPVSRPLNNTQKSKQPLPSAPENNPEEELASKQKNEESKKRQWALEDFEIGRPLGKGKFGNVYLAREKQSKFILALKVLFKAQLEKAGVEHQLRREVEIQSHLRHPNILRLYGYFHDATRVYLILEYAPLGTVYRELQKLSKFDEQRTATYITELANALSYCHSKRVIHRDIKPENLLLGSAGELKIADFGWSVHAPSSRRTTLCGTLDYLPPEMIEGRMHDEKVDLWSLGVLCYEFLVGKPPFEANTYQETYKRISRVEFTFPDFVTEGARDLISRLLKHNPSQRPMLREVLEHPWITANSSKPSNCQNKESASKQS

SMILES: COCCN1CCC(n2c(=O)n(C)c3cnc(Nc4cc5cccnc5cc4C)nc32)CC1 [Example 49, 9-(1-(2-methoxyethyl)piperidin-4-yl)-7-methyl-2-((7-methylquinolin-6-yl)amino)-7,9-dihydro-8H-purin-8-one]
- TTK enz pIC50 (TTK): 5.7
- JAK3 enz pIC50 (JAK3): <5
- AurA enz pIC50 (AURKA (Aurora A)): <5

SMILES: CCN1CCC(n2c(=O)n(C)c3cnc(Nc4cc5cccnc5cc4C)nc32)CC1 [Example 50, 9-(1-ethylpiperidin-4-yl)-7-methyl-2-((7-methylquinolin-6-yl)amino)-7,9-dihydro-8H-purin-8-one]
- TTK enz pIC50 (TTK): 5.2
- JAK3 enz pIC50 (JAK3): <5
- AurA enz pIC50 (AURKA (Aurora A)): <5

SMILES: Cc1cc2nccnc2cc1Nc1ncc2c(n1)n([C@H]1CCOC1)c(=O)n2C [Example 22, (S)-7-methyl-2-((7-methylquinoxalin-6-yl)amino)-9-(tetrahydrofuran-3-yl)-7,9-dihydro-8H-purin-8-one]
- TTK enz pIC50 (TTK): 5.5
- JAK3 enz pIC50 (JAK3): <5
- AurA enz pIC50 (AURKA (Aurora A)): <5

SMILES: Cc1cc2ncccc2cc1Nc1ncc2c(n1)n(C1COC1)c(=O)n2C [Example 36, 7-methyl-2-((7-methylquinolin-6-yl)amino)-9-(oxetan-3-yl)-7,9-dihydro-8H-purin-8-one]
- TTK enz pIC50 (TTK): 6.0
- JAK3 enz pIC50 (JAK3): <5
- AurA enz pIC50 (AURKA (Aurora A)): <5

SMILES: Cc1cc2nnccc2cc1Nc1ncc2c(n1)n([C@@H]1CCCOC1)c(=O)n2C [Example 25, (R)-7-methyl-2-((7-methylcinnolin-6-yl)amino)-9-(tetrahydro-2H-pyran-3-yl)-7,9-dihydro-8H-purin-8-one]
- TTK enz pIC50 (TTK): 6.2
- JAK3 enz pIC50 (JAK3): <5
- AurA enz pIC50 (AURKA (Aurora A)): <5

SMILES: CC(=O)N1CCC(n2c(=O)n(C)c3cnc(Nc4cc5cncnc5cc4C)nc32)CC1 [Example 3, 9-(1-acetylpiperidin-4-yl)-7-methyl-2-((7-methylquinazolin-6-yl)amino)-7,9-dihydro-8H-purin-8-one]
- TTK enz pIC50 (TTK): 5.4
- JAK3 enz pIC50 (JAK3): <5
- AurA enz pIC50 (AURKA (Aurora A)): <5

SMILES: Cc1cc2ncccc2cc1Nc1ncc2c(n1)n(C1CCS(=O)(=O)CC1)c(=O)n2C [Example 35, 9-(1,1-dioxidotetrahydro-2H-thiopyran-4-yl)-7-methyl-2-((7-methylquinolin-6-yl)amino)-7,9-dihydro-8H-purin-8-one]
- TTK enz pIC50 (TTK): 5.9
- JAK3 enz pIC50 (JAK3): 5.2
- AurA enz pIC50 (AURKA (Aurora A)): <5

SMILES: Cc1cc2nnccc2cc1Nc1ncc2c(n1)n([C@@H]1CCOC1)c(=O)n2C [Example 23, (R)-7-methyl-2-((7-methylcinnolin-6-yl)amino)-9-(tetrahydrofuran-3-yl)-7,9-dihydro-8H-purin-8-one]
- TTK enz pIC50 (TTK): 5.9
- JAK3 enz pIC50 (JAK3): <5
- AurA enz pIC50 (AURKA (Aurora A)): <5

SMILES: Cc1cc2ncccc2cc1Nc1ncc2c(n1)n(C1CCN(CCO)CC1)c(=O)n2C [Example 48, 9-(1-(2-hydroxyethyl)piperidin-4-yl)-7-methyl-2-((7-methylquinolin-6-yl)amino)-7,9-dihydro-8H-purin-8-one]
- TTK enz pIC50 (TTK): 5.9
- JAK3 enz pIC50 (JAK3): <5
- AurA enz pIC50 (AURKA (Aurora A)): <5

- IC50 (TTK): 5.01 µM
- IC50 (JAK3): > 10 µM
- IC50 (AURKA (Aurora A)): > 10 µM
SMILES: Cc1cnc2cc(C)c(Nc3ncc4c(n3)n(C3CCOCC3)c(=O)n4C)cc2n1 [Example 34, 2-((3,7-dimethylquinoxalin-6-yl)amino)-7-methyl-9-(tetrahydro-2H-pyran-4-yl)-7,9-dihydro-8H-purin-8-one]

SMILES: Cc1cc2nccnc2cc1Nc1ncc2c(n1)n([C@H]1CC[C@@](C)(O)CC1)c(=O)n2C [Example 19, 9-((1s,4s)-4-hydroxy-4-methylcyclohexyl)-7-methyl-2-((7-methylquinoxalin-6-yl)amino)-7,9-dihydro-8H-purin-8-one]
- IC50 (TTK): 0.2 µM
- IC50 (JAK3): > 10 µM
- IC50 (AURKA (Aurora A)): > 10 µM

SMILES: Cc1cc2nccnc2cc1Nc1ncc2c(n1)n([C@]1(C)CC[C@H](O)CC1)c(=O)n2C [Example 20, 9-((1s,4s)-4-hydroxy-1-methylcyclohexyl)-7-methyl-2-((7-methylquinoxalin-6-yl)amino)-7,9-dihydro-8H-purin-8-one]
- TTK enz pIC50 (TTK): 6.4
- JAK3 enz pIC50 (JAK3): <5
- AurA enz pIC50 (AURKA (Aurora A)): <5

SMILES: Cc1cc2ncccc2cc1Nc1ncc2c(n1)n([C@H]1CC[C@@](C)(N)CC1)c(=O)n2C [Example 39, 9-((1s,4s)-4-amino-4-methylcyclohexyl)-7-methyl-2-((7-methylquinolin-6-yl)amino)-7,9-dihydro-8H-purin-8-one]
- IC50 (TTK): 3.98 µM
- IC50 (JAK3): > 10 µM
- IC50 (AURKA (Aurora A)): > 10 µM

SMILES: CC(=O)N1CCC(n2c(=O)n(C)c3cnc(Nc4cc5ccnnc5cc4C)nc32)CC1 [Example 1, 9-(1-acetylpiperidin-4-yl)-7-methyl-2-((7-methylcinnolin-6-yl)amino)-7,9-dihydro-8H-purin-8-one]
- TTK enz pIC50 (TTK): 5.9
- JAK3 enz pIC50 (JAK3): <5
- AurA enz pIC50 (AURKA (Aurora A)): <5

SMILES: Cc1cc2nccnc2cc1Nc1ncc2c(n1)n([C@H]1CCCOC1)c(=O)n2C [Example 28, (S)-7-methyl-2-((7-methylquinoxalin-6-yl)amino)-9-(tetrahydro-2H-pyran-3-yl)-7,9-dihydro-8H-purin-8-one]
- TTK enz pIC50 (TTK): 6.1
- JAK3 enz pIC50 (JAK3): <5
- AurA enz pIC50 (AURKA (Aurora A)): 5.3

SMILES: Cc1cc2nnccc2cc1Nc1ncc2c(n1)n([C@H]1CC[C@H](O)CC1)c(=O)n2C [Example 7, 9-((1r,4r)-4-hydroxycyclohexyl)-7-methyl-2-((7-methylcinnolin-6-yl)amino)-7,9-dihydro-8H-purin-8-one]
- TTK enz pIC50 (TTK): 6.9
- JAK3 enz pIC50 (JAK3): <5
- AurA enz pIC50 (AURKA (Aurora A)): <5
